Results on 11 molecules are retold here after US11041000B2, “Peptide inhibitors of interleukin-23 receptor and their use to treat inflammatory diseases” (priority 2019, dated 2021).

Numbered stars: 1 amine (or outer) side, 2 acyl side, 3 side chain; on linkers, the order of the positions; unused ones are H or OH. Bridge positions count the residues as written; N and C are the ends. Square brackets hold non-standard residues; d marks the D form. Peptide text beside a SMILES is read from it. Trp(7-Me) = Cc1cccc2c(C[C@H](N)C(=O)O)c[nH]c12; Abu(4-yl) = O=C([C@H](CC[*:3])N[*:1])[*:2]; 2Nal = N[C@@H](Cc1ccc2ccccc2c1)C(=O)O; AEF = NCCOc1ccc(C[C@H](N)C(=O)O)cc1; αMeF = C[C@](N)(Cc1ccccc1)C(=O)O; αMeK = C[C@](N)(CCCCN)C(=O)O; Sar = CNCC(=O)O Where only a bound is given, the exact number is not on record here.

Type in all cases: in vitro ADME
Data set [1] is described as follows: Stability in simulated intestinal fluid (SIF). The following applies: simulated intestinal fluid with pancreatin, pH 6.8, 37° C., matrix is 100 fold dilution of standard SIF concentration; for SIF t½: 20 μM; for half-life at 20 μM: read-out: SIF t½ (converted).
Data set [2] can be described thus: Stability in human fecal homogenate. To be noted: 20% fecal homogenate (supernatant), pH 6.8, 20% human fecal homogenate, anaerobic, 37° C., read-out: t½: Human Feces anaerobic (converted). As to the method:
(§1) Centrifuged the homogenate at 2800×g for 15 min. The supernatant is taken out and used for incubations. […] The final test compound concentration was 20 μM.

A short description of data set [3]: Stability in cynomolgus monkey fecal homogenate. The following applies: 20% fecal homogenate (supernatant), pH 6.8, 20% cynomolgus monkey fecal homogenate, anaerobic, 37° C., read-out: t½: Monkey Feces anaerobic (converted). On the procedure:
as §1

Data set [4] in a line: Stability in rat plasma. To be noted: both sexes, SD rat plasma, EDTA, 37° C., read-out: t½: Rat Plasma EDTA (converted).

`CC(=O)NCCCC[C@H](NC(=O)[C@](C)(CCCCN)NC(=O)[C@H](Cc1ccc2ccccc2c1)NC(=O)[C@H](Cc1ccc(OCCN)cc1)NC(=O)[C@H]1NC(=O)[C@H](CCC(N)=O)NC(=O)[C@H](Cc2c[nH]c3ccc(C#N)cc23)NC(=O)[C@H]([C@@H](C)O)NC(=O)[C@H](CC(N)=O)NC(=O)[C@@H](NC(C)=O)C(C)(C)SSC1(C)C)C(=O)N[C@@H](CC(N)=O)C(=O)N[C@H](CCCCN)C(N)=O` [compound 296]: the “SIF t½” value in data set [1] was 24 h. In addition, the half-life at 20 μM in data set [2], in data set [3] and in data set [4] was over 24 h each time.
With `COc1cccc2c(C[C@@H]3NC(=O)[C@H]([C@@H](C)O)NC(=O)[C@H](CC(N)=O)NC(=O)[C@@H](NC(C)=O)C(C)(C)SSC(C)(C)[C@@H](C(=O)N[C@@H](Cc4ccc(OCCN)cc4)C(=O)N[C@@H](Cc4ccc5ccccc5c4)C(=O)N[C@@](C)(CCCCN)C(=O)N[C@@H](CCCCNC(C)=O)C(=O)N[C@@H](CC(N)=O)C(=O)N[C@H](CCCCN)C(N)=O)NC(=O)[C@H](CCC(N)=O)NC3=O)c[nH]c12` [compound 297], the “SIF t½” value in data set [1] is 24 h. Further, the half-life at 20 μM in data set [2], in data set [3] and in data set [4] was over 24 h in each case.
With `COc1cccc2c(C[C@@H]3NC(=O)[C@H]([C@@H](C)O)NC(=O)[C@H](CC(N)=O)NC(=O)[C@@H](NC(C)=O)C(C)(C)SSC(C)(C)[C@@H](C(=O)N[C@@H](Cc4ccc(OCCN)cc4)C(=O)N[C@@H](Cc4ccc5ccccc5c4)C(=O)N[C@@](C)(CCCCN)C(=O)N[C@@H](CCCCNC(C)=O)C(=O)N[C@@H](CC(N)=O)C(=O)N[C@H](CCCCN)C(N)=O)NC(=O)[C@H](CCCCNC(C)=O)NC3=O)c[nH]c12` [compound 299], the “SIF t½” value in data set [1] is 24 h. Further, the half-life at 20 μM in data set [2], in data set [3] and in data set [4] was over 24 h each time.
For `CC(=O)NCCCC[C@H](NC(=O)[C@](C)(CCCCN)NC(=O)[C@H](Cc1ccc2ccccc2c1)NC(=O)[C@H](Cc1ccc(OCCN)cc1)NC(=O)[C@H]1NC(=O)[C@H](CCCCNC(=O)[C@H](C)N)NC(=O)[C@H](Cc2c[nH]c3c(C)cccc23)NC(=O)[C@H]([C@@H](C)O)NC(=O)[C@H](CC(N)=O)NC(=O)[C@@H](NC(C)=O)C(C)(C)SSC1(C)C)C(=O)N[C@@H](CC(N)=O)C(=O)N[C@H](CC(C)C)C(N)=O` [compound 314], in data set [1], the “SIF t½” value was 24 h. The half-life at 20 μM in data set [2], in data set [3] and in data set [4] was over 24 h in each case.
Consider `CC(=O)NCCCC[C@H](NC(=O)[C@](C)(CCCCN)NC(=O)[C@H](Cc1ccc2ccccc2c1)NC(=O)[C@H](Cc1ccc(OCCN)cc1)NC(=O)[C@H]1NC(=O)[C@H](CCCCNC(=O)CC(C)C)NC(=O)[C@H](Cc2c[nH]c3c(C)cccc23)NC(=O)[C@H]([C@@H](C)O)NC(=O)[C@H](CC(N)=O)NC(=O)[C@@H](NC(C)=O)C(C)(C)SSC1(C)C)C(=O)N[C@@H](CC(N)=O)C(=O)N[C@H](CC(C)C)C(N)=O` [compound 315], for which, in data set [1], the “SIF t½” value is 24 h. Also, the half-life at 20 μM in data set [2], in data set [3] and in data set [4] was over 24 h in each case.
Take `CC(=O)NCCCC[C@H](NC(=O)[C@](C)(CCCCN)NC(=O)[C@H](Cc1ccc2ccccc2c1)NC(=O)[C@H](Cc1ccc(OCCN)cc1)NC(=O)[C@H]1NC(=O)[C@H](CCCCNC(=O)CN)NC(=O)[C@H](Cc2c[nH]c3c(C)cccc23)NC(=O)[C@H]([C@@H](C)O)NC(=O)[C@H](CC(N)=O)NC(=O)[C@@H](NC(C)=O)C(C)(C)SSC1(C)C)C(=O)N[C@@H](CC(N)=O)C(=O)N[C@H](CC(C)C)C(N)=O` [compound 320]: the half-life at 20 μM in data set [1] is 21 h; in data set [2] it was over 24 h; in data set [3] it was 15 h; in data set [4] it was over 24 h.
As to `CC(=O)NCCCC[C@H](NC(=O)[C@](C)(CCCCN)NC(=O)[C@H](Cc1ccc2ccccc2c1)NC(=O)[C@H](Cc1ccc(OCCN)cc1)NC(=O)[C@H]1NC(=O)[C@H](CCCCNC(=O)CCN)NC(=O)[C@H](Cc2c[nH]c3c(C)cccc23)NC(=O)[C@H]([C@@H](C)O)NC(=O)[C@H](CC(N)=O)NC(=O)[C@@H](NC(C)=O)C(C)(C)SSC1(C)C)C(=O)N[C@@H](CC(N)=O)C(=O)N[C@H](CC(C)C)C(N)=O` [compound 321], the “SIF t½” value in data set [1] is 24 h. The half-life at 20 μM in data set [2], in data set [3] and in data set [4] was over 24 h in each case.
`CC(=O)NCCCC[C@@H]1NC(=O)[C@H](Cc2c[nH]c3c(C)cccc23)NC(=O)[C@H]([C@@H](C)O)NC(=O)[C@H](CCC(N)=O)NC(=O)[C@@H](NC(=O)[C@@H](CCCNC(=N)N)NC(C)=O)CCSC[C@@H](C(=O)N[C@@H](Cc2ccc(OCCN)cc2)C(=O)N[C@@H](Cc2ccc3ccccc3c2)C(=O)N[C@@](C)(CCCCN)C(=O)N[C@@H](CCCCNC(C)=O)C(=O)N[C@@H](CC(N)=O)C(=O)N[C@H](CCCCN)C(=O)N(C)CC(N)=O)NC1=O` [compound 323] (Ac-[dR][Abu(4-yl)]QT[Trp(7-Me)]K(Ac)C[AEF][2Nal][αMeK]K(Ac)N[dK][Sar]-NH2; thioether 2-7): the half-life at 20 μM in data set [1] was 20 h; in data set [2] it was over 24 h; in data set [3], 13 h; in data set [4] it was over 24 h.
For the molecule `CC(=O)NCCCC[C@@H]1NC(=O)[C@H](Cc2c[nH]c3c(C)cccc23)NC(=O)[C@H]([C@@H](C)O)NC(=O)[C@H](CCC(N)=O)NC(=O)[C@@H](NC(=O)[C@@H](CCCNC(=N)N)NC(C)=O)CCSC[C@@H](C(=O)N[C@@H](Cc2ccc(OCCN)cc2)C(=O)N[C@@H](Cc2ccc3ccccc3c2)C(=O)N[C@@](C)(CCCCN)C(=O)N[C@@H](CCCCNC(C)=O)C(=O)N[C@@H](CC(N)=O)C(=O)N[C@H](CCCCN)C(N)=O)NC1=O` [compound 324] (Ac-[dR][Abu(4-yl)]QT[Trp(7-Me)]K(Ac)C[AEF][2Nal][αMeK]K(Ac)N[dK]-NH2; thioether 2-7), the half-life at 20 μM in data set [1] is 13 h; in data set [2] it was over 24 h; in data set [3] it was 13 h; in data set [4], over 24 h.
Turning to `CC(=O)NCCCC[C@@H]1NC(=O)[C@H](Cc2c[nH]c3c(C)cccc23)NC(=O)[C@H]([C@@H](C)O)NC(=O)[C@H](CCC(N)=O)NC(=O)[C@@H](NC(=O)[C@@H](CCCNC(=N)N)NC(C)=O)CCSC[C@@H](C(=O)N[C@@H](Cc2ccc(OCCN)cc2)C(=O)N[C@@H](Cc2ccc3ccccc3c2)C(=O)N[C@@](C)(CCCCN)C(=O)N[C@@H](CCCCNC(C)=O)C(=O)N[C@@H](CC(N)=O)C(=O)N[C@@](C)(Cc2ccccc2)C(N)=O)NC1=O` [compound 327] (Ac-[dR][Abu(4-yl)]QT[Trp(7-Me)]K(Ac)C[AEF][2Nal][αMeK]K(Ac)N[αMeF]-NH2; thioether 2-7), the “SIF t½” value in data set [1] is 24 h. The half-life at 20 μM in data set [2] was over 24 h; in data set [3] it was 24 h; in data set [4] it was over 24 h.
In the case of `CC(=O)NCCCC[C@@H]1NC(=O)[C@H](Cc2c[nH]c3c(C)cccc23)NC(=O)[C@H]([C@@H](C)O)NC(=O)[C@@H](CC(N)=O)NC(=O)[C@@H](NC(C)=O)C(C)(C)SSC(C)(C)[C@@H](C(=O)N[C@@H](Cc2ccc(OCCN)cc2)C(=O)N[C@@H](Cc2ccc3ccccc3c2)C(=O)N[C@@](C)(CCCCN)C(=O)N[C@@H](CCCCNC(C)=O)C(=O)N[C@@H](CC(N)=O)C(=O)N[C@H](CC(C)C)C(N)=O)NC1=O` [compound 338], the half-life at 20 μM in data set [2], in data set [3] and in data set [4] was over 24 h each time.
